≈ marks a conversion by molar mass, not a printed value. Like-named read-outs stand apart in the source and are kept apart here.

The values below come from article PMC7321065, “Discovery of New Schiff Bases Tethered Pyrazole Moiety: Design, Synthesis, Biological Evaluation, and Molecular Docking Study as Dual Targeting DHFR/DNA Gyrase Inhibitors with Immunomodulatory Activity” (Molecules, 2020).

What all share (format): cell-based
In one experiment the test system is Bacillus subtilis. Briefly: MIC/MBC, paper disk diffusion. As to conditions: B. subtilis; for MBC: read-out: MBC. Put shortly:
(§1)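 MIC and MBC were obtained by paper disk diffusion, bacteria grown on nutrient agar and fungi/yeast on Sabouraud agar. MIC is the lowest concentration inhibiting growth.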
A general note: A growth-free zone around the sample is the usual read-out of agar diffusion tests.

The next experiment deals with Staphylococcus aureus. Briefly: MIC/MBC, paper disk diffusion. Particulars: Staphylococcus aureus, S. aureus; for MBC: read-out: MBC; for MIC: read-out: MIC. The procedure, abridged: as §1
A further experiment relates to Escherichia coli. Briefly: MIC/MBC, paper disk diffusion. Particulars: E. coli; for MBC / MIC: Escherichia coli; for MBC: read-out: MBC; for MIC: read-out: MIC. Put shortly:
as §1

In another experiment the test system is Enterococcus faecalis. Briefly: MIC/MBC, paper disk diffusion. As to conditions: E. faecalis; for MBC: read-out: MBC; for MIC: read-out: MIC. The procedure, abridged:
as §1

In another experiment the test system is Salmonella typhi. Briefly: MIC/MBC, paper disk diffusion. Particulars: Salmonella enterica, S. typhi; for MBC: read-out: MBC. Put shortly: as §1
Another experiment concerns Pseudomonas aeruginosa. The experiment can be described thus: MIC/MBC, paper disk diffusion. Particulars: P. aeruginosa; for MBC / MIC: Pseudomonas aeruginosa; for MBC: read-out: MBC; for MIC: read-out: MIC. Put shortly:
as §1

Experiment [1] concerns E. coli ATCC BAA-196. Briefly: MIC/MBC against MDRB, paper disk diffusion. As to conditions: Escherichia coli, ATCCBAA196, E. coli ATCC BAA-196; for MBC: read-out: MBC; for MIC: read-out: MIC. Put shortly: (§2)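 Inhibition zones (mm ± SD) measured by agar plate diffusion against multidrug-resistant bacteria; MIC and MBC (µg/ml) determined by paper disk diffusion.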
The subject of experiment [2] is S. aureus ATCC 43300 (MRSA). The experiment can be described thus: MIC/MBC against MDRB, paper disk diffusion. As to conditions: Staphylococcus aureus, S. aureus ATCC 43300; for MBC: read-out: MBC; for MIC: read-out: MIC. Put shortly:
as §2

The next experiment concerns S. aureus ATCC 33591. The experiment can be described thus: MIC/MBC against MDRB, paper disk diffusion. As to conditions: Staphylococcus aureus, ATCC33591, S. aureus ATCC 33591; for MBC: read-out: MBC; for MIC: read-out: MIC. The procedure, abridged: as §2
Experiment [3] has as its system E. coli ATCC BAA-196. The experiment can be described thus: Inhibition zone against MDRB, agar plate diffusion.
Setting [4] is: Bacillus subtilis, read-out: MIC.

As a reminder, the MIC is the smallest concentration in the dilution series that meets the test's criterion for growth inhibition. The term MBC denotes the lowest tested concentration that kills the bacteria rather than only halting them. Consider `COc1ccc(Nc2n[nH]c(N=Cc3ccc(N4CCCCC4)cc3)c2C(N)=O)cc1` [8a, 3-(p-Methoxyphenylamino)-5-(4-(piperidin-1-yl)benzylideneamino)-1H-pyrazole-4-carboxamide], for which the MIC turned out to be 1.95 µg/mL (≈ 4.66 µM) in the experiment on Bacillus subtilis; 1.92 µg/mL (≈ 4.59 µM) in the experiment with Bacillus subtilis (setting [4]); 5.57 µg/mL (≈ 13.3 µM) in the experiment with Staphylococcus aureus; 0.97 µg/mL (≈ 2.32 µM) in the experiment with Escherichia coli; 3.9 µg/mL (≈ 9.32 µM) in the experiment with Enterococcus faecalis; 7.81 µg/mL (≈ 18.7 µM) in the experiment with Salmonella typhi. The minimum inhibitory concentration (MIC) with Pseudomonas aeruginosa came to 5.57 µg/mL (≈ 13.3 µM); in the experiment on E. coli ATCC BAA-196 [1] it was 1.95 µg/mL (≈ 4.66 µM); in [2], 1.95 µg/mL (≈ 4.66 µM); with S. aureus ATCC 33591, 3.9 µg/mL (≈ 9.32 µM). The minimal bactericidal concentration (MBC) came to 3.9 µg/mL (≈ 9.32 µM) in the experiment with Bacillus subtilis (Bacillus subtilis); 5.57 µg/mL (≈ 13.3 µM) in the experiment on Staphylococcus aureus; 1.94 µg/mL (≈ 4.64 µM) with Escherichia coli; 6.63 µg/mL (≈ 15.8 µM) with Enterococcus faecalis; 12.5 µg/mL (≈ 29.8 µM) in the experiment with Salmonella typhi; 10.6 µg/mL (≈ 25.3 µM) in the experiment on Pseudomonas aeruginosa. Besides, the minimal bactericidal concentration (MBC) worked out at 3.9 µg/mL (≈ 9.32 µM) in the experiment with E. coli ATCC BAA-196 [1], 3.9 µg/mL (≈ 9.32 µM) in [2] and 7.8 µg/mL (≈ 18.6 µM) in the experiment on S. aureus ATCC 33591. Further, the “Fold more than Tetracycline (MIC)” value with Escherichia coli is 16 fold; in the experiment with Pseudomonas aeruginosa, 11.2 fold. In the experiment on E. coli ATCC BAA-196 [3], the “Mean Diameter of Inhibition Zone against MDRB” value came to 25 ± 0.46 mm.

For the molecule `COc1ccc(Nc2n[nH]c(N=Cc3cc(OC)c(OC)c(OC)c3)c2C(=O)Nc2ccccc2)cc1` [9b, 3-(p-Methoxyphenylamino)-N-phenyl-5-(3,4,5-trimethoxybenzylideneamino)-1H-pyrazole-4-carboxamide], in the experiment with Bacillus subtilis, the “Fold more potent than Tetracycline (MIC)” value was 6 fold. Besides, the minimal bactericidal concentration (MBC) in the experiment with Bacillus subtilis (Bacillus subtilis) is 9.2 µg/mL (≈ 18.3 µM); in the experiment on Staphylococcus aureus, 15.6 µg/mL (≈ 31.1 µM); in the experiment with Escherichia coli it was 14.1 µg/mL (≈ 28 µM); with Enterococcus faecalis, 7.41 µg/mL (≈ 14.8 µM); in the experiment with Salmonella typhi, 10.6 µg/mL (≈ 21.1 µM); in the experiment on Pseudomonas aeruginosa, 31.2 µg/mL (≈ 62.3 µM). Moreover, the figures for the minimal bactericidal concentration (MBC) (in the experiment on E. coli ATCC BAA-196 [1]; in [2]; in the experiment on S. aureus ATCC 33591) were 11.9 µg/mL (≈ 23.7 µM), 4.5 µg/mL (≈ 8.97 µM) and 3.31 µg/mL (≈ 6.6 µM), respectively. In addition, the minimum inhibitory concentration (MIC) turned out to be 4.5 µg/mL (≈ 8.97 µM) with Bacillus subtilis (setting [4]); 7.81 µg/mL (≈ 15.6 µM) in the experiment with Staphylococcus aureus; 7.81 µg/mL (≈ 15.6 µM) with Escherichia coli; 3.9 µg/mL (≈ 7.78 µM) with Enterococcus faecalis; 5.57 µg/mL (≈ 11.1 µM) against Salmonella typhi; 15.6 µg/mL (≈ 31.1 µM) with Pseudomonas aeruginosa. Further, the figures for the MIC (in the experiment with E. coli ATCC BAA-196 [1]; in experiment [2]; with S. aureus ATCC 33591) were 6.25 µg/mL (≈ 12.5 µM), 2.5 µg/mL (≈ 4.98 µM) and 1.95 µg/mL (≈ 3.89 µM), respectively. For the same molecule, in the experiment with E. coli ATCC BAA-196 [3], the “Mean Diameter of Inhibition Zone against MDRB” value is reported as 22 ± 0.2 mm.
